# In patent US20230286946A1, “DIFLUOROMETHYL-PYRIDIN-2-YL TRIAZOLES” (Boehringer Ingelheim International GmbH, priority 2020, published 2023):
# Target: T1, α5ß2 γ2 GABAA Receptor (Homo sapiens, UniProt P18507+P31644)
# T1 sequence (P31644 32-462): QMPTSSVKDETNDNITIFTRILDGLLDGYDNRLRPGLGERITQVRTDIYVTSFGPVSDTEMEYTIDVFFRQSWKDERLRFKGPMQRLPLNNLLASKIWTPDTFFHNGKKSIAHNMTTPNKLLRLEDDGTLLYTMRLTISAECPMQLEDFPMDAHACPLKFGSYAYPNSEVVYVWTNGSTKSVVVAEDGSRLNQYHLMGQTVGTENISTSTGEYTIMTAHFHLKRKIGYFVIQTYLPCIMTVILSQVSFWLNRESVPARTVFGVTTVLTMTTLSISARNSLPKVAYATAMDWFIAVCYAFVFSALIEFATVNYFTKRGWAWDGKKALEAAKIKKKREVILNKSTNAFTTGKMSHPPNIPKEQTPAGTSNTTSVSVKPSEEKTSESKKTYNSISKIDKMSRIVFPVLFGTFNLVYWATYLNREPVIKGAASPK
# T1 sequence (P18507 40-376 limits assumed): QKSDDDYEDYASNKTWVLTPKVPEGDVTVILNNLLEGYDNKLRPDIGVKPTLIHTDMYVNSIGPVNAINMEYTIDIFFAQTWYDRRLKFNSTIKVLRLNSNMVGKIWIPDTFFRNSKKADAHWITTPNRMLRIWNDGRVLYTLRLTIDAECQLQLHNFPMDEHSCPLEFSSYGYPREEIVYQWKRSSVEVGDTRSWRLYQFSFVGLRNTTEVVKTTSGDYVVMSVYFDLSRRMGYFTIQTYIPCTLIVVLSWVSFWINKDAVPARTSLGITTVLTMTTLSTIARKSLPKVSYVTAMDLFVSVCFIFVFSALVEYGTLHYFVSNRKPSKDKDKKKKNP
# Assay: Assay B: in vitro evaluation of modulation of α5ß2γ2 GABAA receptor, two-electrode voltage clamp in oocytes
# Type: cell-based
# Conditions: for EC50: co-application with 0.5 μM GABA, oocytes, read-out: Assay B: GABAA α 5 β 3 γ 2 EC50
# Procedure: Assay B: In Vitro Evaluation of Modulation of α5ß2 γ2 GABAA Receptor.
# Modulatory efficacy of compounds of formular (I) is determined electrophysiological recordings in oocytes using the two-electrode voltage clamp (TEVC) technique. Oocytes are injected with cRNA for human GABAA receptor subunits α5, ß2 and γ2 in a 3:1:3 ratio and modulatory efficacy is evaluated by co-applications with a submaximal EC5-20 GABA concentration (0.5 μM) termed GABA control. As a standard, the compounds are tested in five concentrations (3.16, 0.316, 0.0316, 0.00316 and 0.000316 μM) on each oocyte starting with the lowest concentration. Background subtracted peak current amplitudes are normalized to the respective GABAcontrol current, converted to % change and depicted +/−S.E.M. as a function of increasing compound concentrations. Plotted datapoints are fitted to the empirical Hill equation using non-linear regression. 95% confidence intervals for maximal efficacy (Bottom) and potency (Log EC50) are derived from this fitting routine.
Assay B: GABAA α 5 β 3 γ 2 Emax vs GABA,EC50,SMILES
-32.3%,11.6 nM,Cc1nnn(-c2ccc(C(F)F)cn2)c1COc1ccc(-c2cc[nH]n2)nn1 [Example 5]
-8.8%,13.9 nM,Cc1nnn(-c2ccc(C(F)F)cn2)c1COc1ccc(-c2cccc(C(N)=O)c2)nn1 [Example 6]
-6.3%,12.7 nM,Cc1nnn(-c2ccc(C(F)F)cn2)c1COc1ccc(-c2cnn(CC#N)c2)nn1 [Example 7]
2.7%,–,Cc1nnn(-c2ccc(C(F)F)cn2)c1COc1ccc(-c2ccc(C#N)nc2)nn1 [Example 8]
-8%,3.1 nM,Cn1nnc(-c2ccc(C(F)F)cn2)c1COc1ccc(-c2ccc(S(C)(=O)=O)nc2)nn1 [Example 23]
-11%,8.2 nM,Cn1nnc(-c2ccc(C(F)F)cn2)c1COc1ccc(-c2ccc(N)nc2)nn1 [Example 25]
-29%,11.5 nM,Cc1c(-c2ccc(OCc3c(-c4ccc(C(F)F)cn4)nnn3C)nn2)cc(C#N)n1C [Example 29]
-4.7%,4.6 nM,Cc1nn(C)cc1-c1ccc(OCc2c(-c3ccc(C(F)F)cn3)nnn2C)nn1 [Example 30]
-12.3%,20 nM,COc1ncc(-c2ccc(OCc3c(-c4ccc(C(F)F)cn4)nnn3C)nn2)cn1 [Example 31]
-3.3%,–,Cn1nnc(-c2ccc(C(F)F)cn2)c1COc1ccc(-c2cnn(C3CCC3)c2)nn1 [Example 32]
-21%,29.5 nM,Cc1c(-c2ccc(OCc3c(-c4ccc(C(F)F)cn4)nnn3C)nn2)cnn1C [Example 33]
-9.6%,63 nM,Cn1nnc(-c2ccc(C(F)F)cn2)c1COc1ccc(-c2cnc3nonc3c2)nn1 [Example 35]
5.7%,–,Cn1nnc(-c2ccc(C(F)F)cn2)c1COc1ccc(-n2cc(C#N)cn2)nn1 [Example 49]
-13.7%,12 nM,Cn1nnc(-c2ccc(C(F)F)cn2)c1COc1ccc(-n2cccn2)nn1 [Example 50]
–,3.9 nM,Cn1nnc(-c2ccc(C(F)F)cn2)c1COc1ccc(-n2ccc(C#N)n2)nn1 [Example 53]
